Experimental data taken from the kinase profiling compilation of Christmann-Franck et al. (2016).

Tests used:
Assay in all cases: SelectScreen, TR FRET
Details in all cases: compound 5.0 µM
PRKD3 (human) = PRKD3 (human) (UniProt O94806)
PLK3 (human) = PLK3 (human) (UniProt Q9H4B4)
ERBB2 (human) = ERBB2 (human) (UniProt P04626)
CSNK1E (human) = CSNK1E (human) (UniProt P49674)
SRPK2 (human) = SRPK2 (human) (UniProt P78362)
TYRO3 (human) = TYRO3 (human) (UniProt Q06418)
EPHA1 (human) = EPHA1 (human) (UniProt P21709)
EPHA2 (human) = EPHA2 (human) (UniProt P29317)
PLK1 (human) = PLK1 (human) (UniProt P53350)
FGFR2 (human) = FGFR2 (human) (UniProt P21802)
HCK (human) = HCK (human) (UniProt P08631)
MST4 (human) = MST4 (human) (UniProt Q9P289)
IRAK4 (human) = IRAK4 (human) (UniProt Q9NWZ3)
IKBKB (human) = IKBKB (human) (UniProt O14920)
NEK2 (human) = NEK2 (human) (UniProt P51955)
GRK5 (human) = GRK5 (human) (UniProt P34947)
TSSK2 (human) = TSSK2 (human) (UniProt Q96PF2)
FGR (human) = FGR (human) (UniProt P09769)
MAPK13 (human) = MAPK13 (human) (UniProt O15264)
ABL2 (human) = ABL2 (human) (UniProt P42684)
CAMK2B (human) = CAMK2B (human) (UniProt Q13554)
EPHB1 (human) = EPHB1 (human) (UniProt P54762)
PRKACA (human) = PRKACA (human) (UniProt P17612)
GSK3A (human) = GSK3A (human) (UniProt P49840)
JAK2 JH1 JH2 (human) = JAK2 JH1 JH2 (human) (UniProt O60674)
PRKCI (human) = PRKCI (human) (UniProt P41743)
MYLK2 (human) = MYLK2 (human) (UniProt Q9H1R3)
MAP3K9 (human) = MAP3K9 (human) (UniProt P80192)
MUSK (human) = MUSK (human) (UniProt O15146)
AKT2 (human) = AKT2 (human) (UniProt P31751)
FES (human) = FES (human) (UniProt P07332)
CAMK2D (human) = CAMK2D (human) (UniProt Q13557)
FLT3 (human) = FLT3 (human) (UniProt P36888)
AURKA (human) = AURKA (human) (UniProt O14965)
FLT1 (human) = FLT1 (human) (UniProt P17948)
PKN1 (human) = PKN1 (human) (UniProt Q16512)
PRKD1 (human) = PRKD1 (human) (UniProt Q15139)
[1] = test system: ABL1 (human), P00519 [E255K]
AKT3 (human) = AKT3 (human) (UniProt Q9Y243)
EPHB3 (human) = EPHB3 (human) (UniProt P54753)
STK25 (human) = STK25 (human) (UniProt O00506)

Sequence of MAPK13 (human) (O15264 whole entry, looked up): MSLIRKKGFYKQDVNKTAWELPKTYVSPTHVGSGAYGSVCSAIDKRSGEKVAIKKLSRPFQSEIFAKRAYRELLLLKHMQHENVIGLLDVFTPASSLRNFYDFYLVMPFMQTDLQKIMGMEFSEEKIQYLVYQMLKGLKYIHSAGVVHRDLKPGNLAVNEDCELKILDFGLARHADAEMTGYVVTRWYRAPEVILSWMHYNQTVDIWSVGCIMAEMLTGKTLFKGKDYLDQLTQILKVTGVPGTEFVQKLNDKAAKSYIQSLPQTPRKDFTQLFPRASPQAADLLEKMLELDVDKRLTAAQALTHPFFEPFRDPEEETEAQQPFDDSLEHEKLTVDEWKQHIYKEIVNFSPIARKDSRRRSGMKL
Sequence of CAMK2B (human) (Q13554 whole entry, looked up): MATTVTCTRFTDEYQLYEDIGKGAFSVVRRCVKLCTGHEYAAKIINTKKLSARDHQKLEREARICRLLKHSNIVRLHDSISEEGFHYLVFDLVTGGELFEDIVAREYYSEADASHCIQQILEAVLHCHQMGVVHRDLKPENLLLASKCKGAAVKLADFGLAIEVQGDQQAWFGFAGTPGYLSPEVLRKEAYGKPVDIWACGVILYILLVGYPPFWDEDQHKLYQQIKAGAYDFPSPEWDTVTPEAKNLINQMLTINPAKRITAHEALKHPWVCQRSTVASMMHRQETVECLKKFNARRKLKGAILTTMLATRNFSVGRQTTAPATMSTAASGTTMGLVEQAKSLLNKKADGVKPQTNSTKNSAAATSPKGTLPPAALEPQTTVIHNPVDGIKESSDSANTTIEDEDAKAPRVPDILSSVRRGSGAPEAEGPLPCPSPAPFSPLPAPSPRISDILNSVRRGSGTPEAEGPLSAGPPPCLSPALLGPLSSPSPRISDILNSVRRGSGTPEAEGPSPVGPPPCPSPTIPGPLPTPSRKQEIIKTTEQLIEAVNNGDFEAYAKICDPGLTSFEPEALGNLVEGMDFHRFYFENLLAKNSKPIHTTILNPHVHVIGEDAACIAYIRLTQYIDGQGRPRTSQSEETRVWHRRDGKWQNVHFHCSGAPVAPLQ
Sequence of MYLK2 (human) (Q9H1R3 whole entry, looked up): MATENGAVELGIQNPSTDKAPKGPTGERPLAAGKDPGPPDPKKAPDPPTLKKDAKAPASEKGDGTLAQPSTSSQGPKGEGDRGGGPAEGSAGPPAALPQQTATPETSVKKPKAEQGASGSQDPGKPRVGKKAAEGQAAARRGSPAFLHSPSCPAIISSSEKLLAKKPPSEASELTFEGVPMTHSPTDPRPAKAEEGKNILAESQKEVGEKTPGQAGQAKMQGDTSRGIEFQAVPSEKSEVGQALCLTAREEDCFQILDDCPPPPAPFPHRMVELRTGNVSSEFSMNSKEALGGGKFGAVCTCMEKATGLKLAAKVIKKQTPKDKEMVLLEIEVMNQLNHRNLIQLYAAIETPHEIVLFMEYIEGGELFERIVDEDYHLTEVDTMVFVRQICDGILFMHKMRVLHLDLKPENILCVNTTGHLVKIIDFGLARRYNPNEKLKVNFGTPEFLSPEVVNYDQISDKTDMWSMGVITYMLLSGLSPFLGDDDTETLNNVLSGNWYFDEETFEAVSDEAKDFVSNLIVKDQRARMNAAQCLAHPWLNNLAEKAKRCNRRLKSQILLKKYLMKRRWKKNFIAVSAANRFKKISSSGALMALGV
Sequence of FGFR2 (human) (P21802 whole entry, looked up): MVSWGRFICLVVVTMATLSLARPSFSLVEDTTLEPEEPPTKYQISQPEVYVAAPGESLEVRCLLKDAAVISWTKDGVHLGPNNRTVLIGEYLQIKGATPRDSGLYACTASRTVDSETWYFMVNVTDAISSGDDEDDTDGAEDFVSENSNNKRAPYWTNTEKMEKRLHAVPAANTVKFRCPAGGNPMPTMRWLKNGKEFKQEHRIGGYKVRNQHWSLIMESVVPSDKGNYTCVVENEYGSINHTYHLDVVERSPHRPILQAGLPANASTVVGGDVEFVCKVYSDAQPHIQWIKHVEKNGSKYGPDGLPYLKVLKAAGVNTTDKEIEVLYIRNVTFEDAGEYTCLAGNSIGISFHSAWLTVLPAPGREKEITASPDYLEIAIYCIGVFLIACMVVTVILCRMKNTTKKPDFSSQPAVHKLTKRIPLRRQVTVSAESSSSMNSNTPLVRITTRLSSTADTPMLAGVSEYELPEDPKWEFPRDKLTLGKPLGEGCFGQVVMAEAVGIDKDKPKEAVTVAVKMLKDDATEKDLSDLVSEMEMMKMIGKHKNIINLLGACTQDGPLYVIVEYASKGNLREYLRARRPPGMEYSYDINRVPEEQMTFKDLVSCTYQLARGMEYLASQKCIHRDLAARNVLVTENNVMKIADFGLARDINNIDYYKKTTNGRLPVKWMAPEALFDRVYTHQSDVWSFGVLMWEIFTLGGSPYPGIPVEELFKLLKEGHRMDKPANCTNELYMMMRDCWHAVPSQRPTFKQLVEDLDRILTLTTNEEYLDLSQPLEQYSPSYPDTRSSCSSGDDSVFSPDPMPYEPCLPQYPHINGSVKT
Sequence of PKN1 (human) (Q16512 whole entry, looked up): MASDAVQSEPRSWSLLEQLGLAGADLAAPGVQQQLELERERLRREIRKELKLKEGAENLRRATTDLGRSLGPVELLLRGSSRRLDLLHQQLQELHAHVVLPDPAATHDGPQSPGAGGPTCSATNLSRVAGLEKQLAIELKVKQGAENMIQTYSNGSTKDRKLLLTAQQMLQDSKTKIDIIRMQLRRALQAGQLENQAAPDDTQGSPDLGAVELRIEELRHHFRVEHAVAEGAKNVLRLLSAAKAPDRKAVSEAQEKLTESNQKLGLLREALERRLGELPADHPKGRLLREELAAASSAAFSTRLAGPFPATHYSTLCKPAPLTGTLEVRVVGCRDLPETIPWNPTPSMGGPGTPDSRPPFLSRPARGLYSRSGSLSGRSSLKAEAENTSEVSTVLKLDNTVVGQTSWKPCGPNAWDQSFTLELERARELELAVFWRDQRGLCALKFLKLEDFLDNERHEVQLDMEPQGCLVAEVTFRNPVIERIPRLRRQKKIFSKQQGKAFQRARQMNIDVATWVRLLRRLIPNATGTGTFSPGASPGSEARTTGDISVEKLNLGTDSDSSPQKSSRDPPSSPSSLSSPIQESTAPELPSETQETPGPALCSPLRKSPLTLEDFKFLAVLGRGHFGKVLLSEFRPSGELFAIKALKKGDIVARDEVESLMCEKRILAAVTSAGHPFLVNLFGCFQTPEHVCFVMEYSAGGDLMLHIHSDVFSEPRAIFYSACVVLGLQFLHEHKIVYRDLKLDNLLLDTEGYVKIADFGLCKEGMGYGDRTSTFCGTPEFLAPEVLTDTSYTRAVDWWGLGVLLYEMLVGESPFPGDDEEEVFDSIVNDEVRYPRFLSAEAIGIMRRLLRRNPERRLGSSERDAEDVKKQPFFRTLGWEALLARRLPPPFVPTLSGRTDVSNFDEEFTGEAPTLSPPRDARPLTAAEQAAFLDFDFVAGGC
Sequence of SRPK2 (human) (P78362 whole entry, looked up): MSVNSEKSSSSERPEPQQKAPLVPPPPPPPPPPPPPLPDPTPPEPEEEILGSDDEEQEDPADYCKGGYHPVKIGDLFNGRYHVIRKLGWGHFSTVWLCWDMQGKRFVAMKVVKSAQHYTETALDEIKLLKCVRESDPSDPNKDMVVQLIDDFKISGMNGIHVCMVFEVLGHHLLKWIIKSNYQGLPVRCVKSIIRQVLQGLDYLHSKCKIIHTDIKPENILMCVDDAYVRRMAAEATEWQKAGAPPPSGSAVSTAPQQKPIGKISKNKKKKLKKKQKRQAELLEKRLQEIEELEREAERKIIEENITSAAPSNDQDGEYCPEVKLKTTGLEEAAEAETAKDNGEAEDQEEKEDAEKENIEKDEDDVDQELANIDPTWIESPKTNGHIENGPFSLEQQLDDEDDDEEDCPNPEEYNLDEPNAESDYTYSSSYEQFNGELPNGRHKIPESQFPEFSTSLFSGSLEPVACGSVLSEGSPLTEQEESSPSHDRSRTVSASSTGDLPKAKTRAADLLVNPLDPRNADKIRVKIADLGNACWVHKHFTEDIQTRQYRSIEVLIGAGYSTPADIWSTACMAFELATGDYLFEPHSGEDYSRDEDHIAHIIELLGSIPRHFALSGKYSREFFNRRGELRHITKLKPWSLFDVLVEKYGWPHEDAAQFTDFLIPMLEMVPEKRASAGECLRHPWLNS
Sequence of IRAK4 (human) (Q9NWZ3 whole entry, looked up): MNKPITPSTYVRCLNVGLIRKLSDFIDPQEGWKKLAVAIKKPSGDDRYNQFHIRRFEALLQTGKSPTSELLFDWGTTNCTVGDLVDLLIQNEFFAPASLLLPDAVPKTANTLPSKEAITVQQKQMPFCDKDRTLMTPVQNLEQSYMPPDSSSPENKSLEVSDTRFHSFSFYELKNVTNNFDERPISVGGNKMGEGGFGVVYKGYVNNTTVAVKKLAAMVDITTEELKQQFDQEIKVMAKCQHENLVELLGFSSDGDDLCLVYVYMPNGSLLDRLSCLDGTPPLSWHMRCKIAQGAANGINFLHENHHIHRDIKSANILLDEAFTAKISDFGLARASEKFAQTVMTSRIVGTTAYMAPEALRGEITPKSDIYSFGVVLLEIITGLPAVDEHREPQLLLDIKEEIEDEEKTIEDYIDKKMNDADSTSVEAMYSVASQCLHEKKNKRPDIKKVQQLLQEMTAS
Sequence of AURKA (human) (O14965 whole entry, looked up): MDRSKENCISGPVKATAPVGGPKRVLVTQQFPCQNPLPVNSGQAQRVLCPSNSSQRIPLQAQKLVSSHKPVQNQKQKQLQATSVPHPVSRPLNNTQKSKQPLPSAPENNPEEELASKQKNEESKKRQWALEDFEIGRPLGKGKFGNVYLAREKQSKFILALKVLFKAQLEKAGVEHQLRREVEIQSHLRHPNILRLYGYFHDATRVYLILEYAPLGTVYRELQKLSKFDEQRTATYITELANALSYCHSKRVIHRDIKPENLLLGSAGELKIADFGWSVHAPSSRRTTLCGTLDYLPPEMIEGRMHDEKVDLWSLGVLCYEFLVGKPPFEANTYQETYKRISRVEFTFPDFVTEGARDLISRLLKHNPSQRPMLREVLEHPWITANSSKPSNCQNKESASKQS

Question: For `Nc1cc(C(F)(F)F)c(-c2cc(N3CCOCC3)nc(N3CCOCC3)n2)cn1`, which inhibition (PRKD3 (human)) is on record?
Answer: 8%

Question: What about the inhibition (PLK3 (human)) of the same compound?
Answer: 1%

Question: And the inhibition (ERBB2 (human))?
Answer: -4%

Question: What about the inhibition (CSNK1E (human)) of the same compound?
Answer: 11%

Question: And the inhibition (SRPK2 (human))?
Answer: 7%

Question: What about the inhibition (TYRO3 (human)) of the same compound?
Answer: 3%

Question: And the inhibition (EPHA1 (human))?
Answer: -2%

Question: And the inhibition (EPHA2 (human))?
Answer: 8%

Question: And the inhibition (PLK1 (human))?
Answer: 1%

Question: And the inhibition (FGFR2 (human))?
Answer: 2%

Question: And the inhibition (HCK (human))?
Answer: 10%

Question: And the inhibition (MST4 (human))?
Answer: -3%

Question: What about the inhibition (IRAK4 (human)) of the same compound?
Answer: 12%

Question: What about the inhibition (IKBKB (human)) of the same compound?
Answer: -2%

Question: What about the inhibition (NEK2 (human)) of the same compound?
Answer: 7%

Question: And the inhibition (GRK5 (human))?
Answer: 1%

Question: What about the inhibition (TSSK2 (human)) of the same compound?
Answer: -6%

Question: And the inhibition (FGR (human))?
Answer: 15%

Question: What about the inhibition (MAPK13 (human)) of the same compound?
Answer: 2%

Question: And the inhibition (ABL2 (human))?
Answer: -3%

Question: And the inhibition (CAMK2B (human))?
Answer: 9%

Question: And the inhibition (EPHB1 (human))?
Answer: 3%

Question: What about the inhibition (PRKACA (human)) of the same compound?
Answer: 0%

Question: What about the inhibition (GSK3A (human)) of the same compound?
Answer: 5%

Question: What about the inhibition (JAK2 JH1 JH2 (human)) of the same compound?
Answer: 18%

Question: What about the inhibition (PRKCI (human)) of the same compound?
Answer: 9%

Question: What about the inhibition (MYLK2 (human)) of the same compound?
Answer: 8%

Question: What about the inhibition (MAP3K9 (human)) of the same compound?
Answer: 2%

Question: And the inhibition (MUSK (human))?
Answer: 5%

Question: And the inhibition (AKT2 (human))?
Answer: 0%

Question: And the inhibition (FES (human))?
Answer: 0%

Question: And the inhibition (CAMK2D (human))?
Answer: 1%

Question: What about the inhibition (FLT3 (human)) of the same compound?
Answer: 18%

Question: And the inhibition (AURKA (human))?
Answer: 34%

Question: And the inhibition (FLT1 (human))?
Answer: 2%

Question: And the inhibition (PKN1 (human))?
Answer: 9%

Question: What about the inhibition (PRKD1 (human)) of the same compound?
Answer: 5%

Question: What about the inhibition [1] of the same compound?
Answer: -4%

Question: What about the inhibition (AKT3 (human)) of the same compound?
Answer: 3%

Question: And the inhibition (EPHB3 (human))?
Answer: -1%

Question: And the inhibition (STK25 (human))?
Answer: 6%
